IC50 data for four molecules are collected here from patent US11891405B2, “Furo[3,4-b]pyrrole-containing BTK inhibitor” (CHIA TAI TIANQING PHARMACEUTICAL GROUP CO., LTD., priority 2018, dated 2024).

One experiment concerns the target BTK(WT) (Homo sapiens, UniProt Q06187). Put plainly: Screening for BTK inhibitory activity. It is filed as biochemical. The protocol: 1.1 Screening for BTK Inhibitory Activity
350 ng/μL BTK stock solution was diluted with kinase buffer (50 mM HEPES, 10 mM MgCl2, 2 mM DTT, 1 mM EGTA, 0.01% Tween 20), and 6 μL of 1.67× working solution at 0.0334 ng/μL (final concentration: 0.02 ng/μL) was added to each well. Different compounds dissolved in DMSO were added to the wells using a nanoliter pipettor, resulting in the final concentration of 1000 nM to 0.244 nM (4-fold gradient for 7 concentrations in total), and blank control wells (without enzyme) and negative control wells (with enzyme, plus vehicle DMSO) were set, 2 replicate wells for each well. After enzyme was reacted with the compound or vehicle for 30 min, 5×ATP at 100 μM (final concentration: 20 μM) prepared with kinase buffer was mixed with 5×substrate at 0.5 μM (final concentration: 0.1 μM, ULight-poly GT) at a ratio of 1:1, and the mixture was added to each well at 4 μL/well. After being sealed with a film, the plate was incubated at room temperature for 2 h, then 5 μL of 4×EDTA at 40 mM (final concentration: 10 mM) was added to each well. After the plate was incubated for 5 min at room temperature, 5 μL of 4× detection reagent at 8 nM (final concentration: 2 nM, Ab) was added to each well, followed by incubation at room temperature for 1 h. The plate was read using a PE Envision multi-functional microplate reader ([…], emission: 665 nm), and IC50 was calculated by four-parameter fitting.

The next experiment addresses T1, ITK (Homo sapiens, UniProt Q08881).
T1 sequence (Q08881 1-620): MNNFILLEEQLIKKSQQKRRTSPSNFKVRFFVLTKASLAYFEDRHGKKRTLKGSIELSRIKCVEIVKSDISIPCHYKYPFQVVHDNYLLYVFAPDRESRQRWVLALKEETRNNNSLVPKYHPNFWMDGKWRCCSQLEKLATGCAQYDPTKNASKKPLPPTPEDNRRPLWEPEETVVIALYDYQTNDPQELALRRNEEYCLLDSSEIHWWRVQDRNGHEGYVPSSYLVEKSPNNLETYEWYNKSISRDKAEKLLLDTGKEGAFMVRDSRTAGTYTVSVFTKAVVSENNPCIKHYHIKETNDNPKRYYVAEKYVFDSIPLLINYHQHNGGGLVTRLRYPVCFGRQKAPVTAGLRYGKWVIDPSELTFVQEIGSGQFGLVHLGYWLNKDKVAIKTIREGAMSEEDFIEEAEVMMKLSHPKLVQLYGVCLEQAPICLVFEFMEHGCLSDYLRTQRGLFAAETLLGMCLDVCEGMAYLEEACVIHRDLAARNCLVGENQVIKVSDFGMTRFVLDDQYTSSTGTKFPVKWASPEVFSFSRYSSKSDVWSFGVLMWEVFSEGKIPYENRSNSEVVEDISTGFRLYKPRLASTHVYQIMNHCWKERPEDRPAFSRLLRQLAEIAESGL
Put plainly: Screening for ITK inhibition activity. In kind it is biochemical. Here is the method: 1.4 Screening for ITK ([…]) Inhibition Activity
50 ng/μL ITK stock solution was diluted with kinase buffer (50 mM HEPES, 10 mM MgCl2, 2 mM DTT, 1 mM EGTA, 0.01% Tween 20), and 6 μL of 1.67× working solution at […] (final concentration: 0.05ng/μL) was added to each well. Different compounds dissolved in DMSO were added to the wells using a nanoliter pipettor, resulting in the final concentration of 1000 nM to 0.24 nM (4-fold gradient for 7 concentrations in total), and blank control wells (without enzyme) and negative control wells (with enzyme, plus vehicle DMSO) were set. After enzyme was reacted with the compound or vehicle for 30 min, 5×ATP at 50 μM (final concentration: 10 μM) prepared with kinase buffer was mixed with 5× substrate at 0.5 μM (final concentration: 0.1 μM, ULight-poly GT) at a ratio of 1:1, and the mixture was added to each well at 4 μL/well. After being sealed with a film, the plate was incubated at room temperature for 2 h, then 5 μL of 4×EDTA at 40 mM (final concentration: 10 mM) was added to each well. After the plate was incubated for 5 min at room temperature, 5 μL of 4×detection reagent at 8 nM (final concentration: 2 nM, Eu-anti-phospho-tyrosine antibody) was added to each well, followed by incubation at room temperature for 1 h. The plate was read using a PE Envision multi-functional microplate reader (excitation: 320 nm, emission: 665 nm), and IC50 was calculated by four-parameter fitting.

Molecules are shown by their SMILES. Where only a bound is given, the exact number is not on record here.

BTK(WT), sequence (Q06187 whole entry): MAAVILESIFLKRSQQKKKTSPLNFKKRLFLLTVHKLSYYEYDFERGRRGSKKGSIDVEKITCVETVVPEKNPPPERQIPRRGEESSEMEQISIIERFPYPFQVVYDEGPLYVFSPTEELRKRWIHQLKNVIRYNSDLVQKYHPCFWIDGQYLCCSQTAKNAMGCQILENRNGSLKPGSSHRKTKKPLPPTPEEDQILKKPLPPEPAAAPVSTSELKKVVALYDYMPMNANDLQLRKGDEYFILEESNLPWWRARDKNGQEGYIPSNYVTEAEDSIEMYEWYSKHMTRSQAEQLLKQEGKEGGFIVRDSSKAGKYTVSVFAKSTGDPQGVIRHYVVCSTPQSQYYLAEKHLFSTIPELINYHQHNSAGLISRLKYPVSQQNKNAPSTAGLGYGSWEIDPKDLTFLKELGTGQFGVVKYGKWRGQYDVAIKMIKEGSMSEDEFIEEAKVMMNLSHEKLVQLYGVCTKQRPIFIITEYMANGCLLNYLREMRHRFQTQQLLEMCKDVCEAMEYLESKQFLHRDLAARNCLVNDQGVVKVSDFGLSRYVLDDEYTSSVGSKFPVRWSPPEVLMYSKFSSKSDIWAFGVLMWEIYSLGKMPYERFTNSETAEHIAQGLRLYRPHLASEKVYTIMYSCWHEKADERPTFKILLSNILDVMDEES

Take `CC#CC(=O)N1[C@@H]2COC[C@@H]2C[C@H]1c1nc(-c2ccc(C(=O)Nc3ccccn3)cc2)c2c(N)nccn12` [Compound I-1, 4-(8-amino-3-((2S,3aR,6aS)-1-(but-2-ynoyl)hexahydro-1H-furo[3,4-b]pyrrol-2-yl)imidazo [1,5-a]pyrazin-1-yl)-N-(pyridin-2-yl)benzamide]: the IC50 was 52.1 nM at BTK(WT) and more than 1000 nM on ITK.

As to `C=CC(=O)N1[C@@H]2COC[C@@H]2C[C@H]1c1nc(-c2ccc(C(=O)Nc3ccccn3)cc2)c2c(N)nccn12` [Compound I-3, 4-(3-((2S,3AR,6AS)-1-ACRYLOYLHEXAHYDRO-1H-FURO[3,4-B]PYRROL-2-YL)-8-AMINOIMIDAZO [1,5-A]PYRAZIN-1-YL)-N-(PYRIDIN-2-YL)BENZAMIDE], the IC50 against BTK(WT) is 21.4 nM; against ITK it was more than 1000 nM.

As to `CC#CC(=O)N1[C@@H]2COC[C@@H]2C[C@H]1c1nc(-c2ccc(C(=O)Nc3cc(C(F)(F)F)ccn3)cc2F)c2c(N)nccn12` [Compound I-4, 4-(8-AMINO-3-((2S,3AR,6AS)-1-(BUT-2-YNOYL)HEXAHYDRO-1H-FURO[3,4-B]PYRROL-2-YL)IMIDAZO[1,5-A]PYRAZIN-1-YL)-3-FLUORO-N-(4-(TRIFLUOROMETHYL)PYRIDIN-2-YL)BENZAMIDE], the IC50 against BTK(WT) was 12.4 nM; against ITK, more than 1000 nM.

Regarding `Nc1nccn2c([C@@H]3C[C@H]4COC[C@H]4N3C(=O)C3CC3)nc(-c3ccc(C(=O)Nc4cc(C(F)(F)F)ccn4)cc3F)c12` [Compound I-7, 4-(8-AMINO-3-((2S,3AR,6AS)-1-(CYCLOPROPANECARBONYL)HEXAHYDRO-1H-FURO[3,4-B]PYRROL-2-YL)IMIDAZO[1,5-A]PYRAZIN-1-YL)-3-FLUORO-N-(4-(TRIFLUOROMETHYL)PYRIDIN-2-YL)BENZAMIDE], the IC50 was 9.7 nM on BTK(WT) and more than 1000 nM on ITK.

Broadly, the IC50 is the concentration that gives 50% inhibition. Low values mean inhibition by little substance, high ones a need for much substance.
